Reference: patent US10323078B2, “Isolated peptides and fragments thereof from fibrinogen for use as drugs, particularly in skin inflammatory diseases” (Universite Paris Descartes, priority 2015, dated 2019)

Columns and labels:
[1] = system: P. acnes surface proteins; test: Binding of biotinylated ECM ligands to immobilized P. acnes surface proteins; set-up: species or system Propionibacterium acnes
Method: FIG. 2: Binding of P. acnes surface protein to purified human fibrinogen. (A) P. acnes surface proteins (0.8 to 50 μg/ml) were immobilized onto a 96-well polystyrene plate and probed with biotinylated fibrinogen (0.1 μg/ml) for 2 h at room temperature. (B) P. acnes surface proteins (25 μg/ml) were immobilized onto a 96-well polystyrene plate and probed with various concentrations of biotinylated fibrinogen ranging from 0.1 to 16 μg/ml for 2 h at room temperature. Bound biotinylated fibrinogen were detected with HRP-streptavidine as described in Materials and Methods.
To characterize the interaction between P. acnes and ligands, we used biotinylated molecules in quantitative and qualitative assays. In a first set of assays, ECM ligands (fibrinogen, collagens I, IV, VI and VIII) were used as labelled proteins with biotin. In a second set of assays, P. acnes surface proteins (total extract and purified Pfg) were biotinylated. For quantitative analysis, unlabeled protein were diluted into 50 mM carbonate-bicarbonate, pH 9.6 buffer to yield a protein concentration ranging from 0.01 to 50 μg/ml, and then immobilized to 96-well polystyrene plates at 4° C. overnight. […] After washing, bound peroxidase was detected using the chromogenic peroxidase substrate ABTS. […] Binding activity was detected by incubating the membranes with 20 ml of PBT containing biotinylated proteins (0.1 μg/ml) for 2 h at room temperature followed by three washes with PBT. Bound biotinylated proteins were detected by incubating the membrane with peroxidase conjugated to streptavidin (0.5 μg/ml in PBT) for 1 h at room temperature. After washing, bound peroxidase activity was detected using 3,3′-diaminobenzidine in the presence of CoCl2 and H2O2 (Harlow and Lane, 1988).
In order to identify P. acnes surface protein recognized by ECM ligands, we used the most commons ECM proteins recognize by skin related bacteria like collagens and fibrinogen. […] To identify surface proteins, P. acnes total heat protein extracts were electrophoretically separated and detected by silver staining (FIG. 1B). […]

[2] = system: Pfg; test: Binding of biotinylated Pfg to immobilized fibrinogen (polystyrene plate); set-up: species or system Propionibacterium acnes; conditions: various quantities of fibrinogen immobilized; biotinylated Pfg 0.1 μg/ml, 2 h at 23° C.
Method: FIG. 5: Binding of P. acnes surface proteins to fibrinogen. (A) Various quantities of human fibrinogen (hFg) and bovine fibrinogen (bFg) were immobilized onto a 96-well polystyrene plate at 4° C. for 18 h and incubated with biotinylated Pfg at 0.1 μg/ml for 2 h at 23° C. Bovine serum albumin (BSA) was used as negative control. Bound material was detected by using the HRP-streptavidin conjugate. Peroxidase activity was measured by using the ABTS substrate at 405 nm. Proteins (10 μg per lane) were separated by 10% SDS-PAGE and detected by (B) Commassie blue staining, and transferred to nitrocellulose membrane and incubated with (C) HRP-streptavidine alone, and (D) biotinylated Pfg (0.1 μg/ml). Lanes 1: molecular weight standards. Lane 2: BSA. […]
To characterize the interaction between P. acnes and ligands, we used biotinylated molecules in quantitative and qualitative assays. […] For quantitative analysis, unlabeled protein were diluted into 50 mM carbonate-bicarbonate, pH 9.6 buffer to yield a protein concentration ranging from 0.01 to 50 μg/ml, and then immobilized to 96-well polystyrene plates at 4° C. overnight. […] After washing, bound peroxidase was detected using the chromogenic peroxidase substrate ABTS. […] Binding activity was detected by incubating the membranes with 20 ml of PBT containing biotinylated proteins (0.1 μg/ml) for 2 h at room temperature followed by three washes with PBT. […]

## human fibrinogen: purified commercial human fibrinogen (Sigma), glycoprotein hexamer of Aα, Bß and γ chains
[1]; 25 μg/ml of protein immobilized per well, various quantity of biotinylated Fg and Collagen I
  Binding activity of biotinylated ligand to immobilized P. acnes total surface protein: strong binding activity
[1]; several concentrations of protein extract immobilized, biotinylated fibrinogen 0.1 μg/ml
  P. acnes protein extract concentration at which the binding activity for fibrinogen reaches a plateau: about 6.25 μg/ml
[2]
  Binding of biotinylated Pfg to immobilized fibrinogen: dose-dependent with a higher affinity for hFg
